Assay results: ChEMBL document CHEMBL5226279, “Mercaptoacetamide: A promising zinc-binding group for the discovery of selective histone deacetylase 6 inhibitors” (Eur J Med Chem, 2021)
Converted amounts (≈) assume the structure as drawn.

How the values were obtained:
Histone deacetylase 8 [1] = biological target: T1, Histone deacetylase 8 (Homo sapiens, UniProt Q9BY41); test: Inhibition of human HDAC8 incubated for 90 mins by fluorescence assay
T1 sequence (Q9BY41 whole entry): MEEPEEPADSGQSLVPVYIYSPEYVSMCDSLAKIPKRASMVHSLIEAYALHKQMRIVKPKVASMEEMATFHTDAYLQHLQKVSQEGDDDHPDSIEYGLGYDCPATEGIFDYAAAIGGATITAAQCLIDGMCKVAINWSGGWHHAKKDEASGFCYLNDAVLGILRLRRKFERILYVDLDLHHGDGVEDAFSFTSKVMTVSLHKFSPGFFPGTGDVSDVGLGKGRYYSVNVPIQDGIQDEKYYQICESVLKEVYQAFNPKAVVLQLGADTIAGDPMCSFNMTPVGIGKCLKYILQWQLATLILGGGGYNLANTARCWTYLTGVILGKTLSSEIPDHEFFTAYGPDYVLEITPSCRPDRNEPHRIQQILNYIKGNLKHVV

Histone deacetylase 1 = Histone deacetylase 1 (Homo sapiens, UniProt Q13547); test: Inhibition of human HDAC1 using FAM-labeled acetylated peptide as substrate incubated for 17 hrs by fluorescence based assay
Histone deacetylase 2 = Histone deacetylase 2 (Homo sapiens, UniProt Q92769); test: Inhibition of human HDAC2 using FAM-labeled acetylated peptide as substrate incubated for 17 hrs by fluorescence based assay
Histone deacetylase 8 [2] = biological target: T1, Histone deacetylase 8; test: Inhibition of human HDAC8 using FAM-labeled acetylated peptide as substrate incubated for 17 hrs by fluorescence based assay
[3] = biological target: T2, Protein deacetylase HDAC6 (Homo sapiens, UniProt Q9UBN7); test: Inhibition of human HDAC6 using FAM-labeled acetylated peptide as substrate incubated for 17 hrs by fluorescence based assay
T2 sequence (Q9UBN7 whole entry): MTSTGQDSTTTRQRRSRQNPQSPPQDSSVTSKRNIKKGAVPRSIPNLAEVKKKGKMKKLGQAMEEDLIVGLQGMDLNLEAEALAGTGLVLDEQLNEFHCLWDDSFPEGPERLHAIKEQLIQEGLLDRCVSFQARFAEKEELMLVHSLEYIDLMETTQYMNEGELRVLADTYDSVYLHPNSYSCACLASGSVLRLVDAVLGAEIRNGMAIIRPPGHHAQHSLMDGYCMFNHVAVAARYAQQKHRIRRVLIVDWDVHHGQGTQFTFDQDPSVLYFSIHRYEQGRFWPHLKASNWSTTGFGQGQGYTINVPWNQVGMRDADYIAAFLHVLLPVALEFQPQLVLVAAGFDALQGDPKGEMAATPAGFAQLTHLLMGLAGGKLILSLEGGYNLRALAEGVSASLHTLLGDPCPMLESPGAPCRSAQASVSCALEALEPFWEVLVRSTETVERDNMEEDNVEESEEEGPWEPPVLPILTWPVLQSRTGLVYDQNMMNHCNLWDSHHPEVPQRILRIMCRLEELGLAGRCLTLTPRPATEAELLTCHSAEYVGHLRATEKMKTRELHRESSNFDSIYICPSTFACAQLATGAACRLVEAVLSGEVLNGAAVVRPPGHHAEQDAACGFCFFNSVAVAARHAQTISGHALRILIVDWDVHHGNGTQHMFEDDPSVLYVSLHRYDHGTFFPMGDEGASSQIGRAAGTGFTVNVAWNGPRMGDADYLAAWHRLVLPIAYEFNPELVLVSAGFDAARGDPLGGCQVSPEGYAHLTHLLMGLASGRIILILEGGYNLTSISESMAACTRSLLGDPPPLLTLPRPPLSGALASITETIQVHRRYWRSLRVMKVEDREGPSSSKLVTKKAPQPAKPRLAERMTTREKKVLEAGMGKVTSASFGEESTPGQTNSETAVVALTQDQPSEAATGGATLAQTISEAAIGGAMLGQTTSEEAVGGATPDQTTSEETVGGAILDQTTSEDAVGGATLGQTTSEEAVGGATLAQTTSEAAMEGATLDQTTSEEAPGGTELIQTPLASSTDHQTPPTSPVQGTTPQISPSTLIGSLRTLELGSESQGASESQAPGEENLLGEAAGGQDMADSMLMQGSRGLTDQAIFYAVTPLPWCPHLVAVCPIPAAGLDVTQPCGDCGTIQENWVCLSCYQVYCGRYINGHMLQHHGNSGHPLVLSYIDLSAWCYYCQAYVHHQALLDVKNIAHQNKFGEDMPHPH

[4] = biological target: T3, Polyamine deacetylase HDAC10 (Homo sapiens, UniProt Q969S8); test: Inhibition of human HDAC10 using FAM-labeled acetylated peptide as substrate incubated for 17 hrs by fluorescence based assay
T3 sequence (Q969S8 whole entry): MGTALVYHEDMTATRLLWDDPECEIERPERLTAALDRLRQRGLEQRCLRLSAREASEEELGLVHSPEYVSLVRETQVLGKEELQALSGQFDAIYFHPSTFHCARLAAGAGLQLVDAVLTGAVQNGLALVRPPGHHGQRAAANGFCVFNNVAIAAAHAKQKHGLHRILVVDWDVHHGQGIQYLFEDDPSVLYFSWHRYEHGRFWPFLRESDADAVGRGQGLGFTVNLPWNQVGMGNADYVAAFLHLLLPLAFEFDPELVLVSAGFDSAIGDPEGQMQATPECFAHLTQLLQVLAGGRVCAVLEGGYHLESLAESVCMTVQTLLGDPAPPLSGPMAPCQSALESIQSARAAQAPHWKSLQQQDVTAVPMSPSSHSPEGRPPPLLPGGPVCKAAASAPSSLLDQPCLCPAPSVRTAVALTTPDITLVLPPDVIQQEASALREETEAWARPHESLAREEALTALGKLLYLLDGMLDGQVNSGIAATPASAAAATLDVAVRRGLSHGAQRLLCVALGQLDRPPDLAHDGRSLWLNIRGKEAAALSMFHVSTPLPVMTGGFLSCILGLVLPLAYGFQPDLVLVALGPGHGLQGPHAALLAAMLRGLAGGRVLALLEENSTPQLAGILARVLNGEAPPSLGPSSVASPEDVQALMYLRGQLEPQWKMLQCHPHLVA

[5] = biological target: T2, Protein deacetylase HDAC6; test: Inhibition of HDAC6 (unknown origin)
N2a [6] = test: Antialzheimer activity in mouse N2a cells overexpressing hAPP assessed as reduction in human amyloid beta 40 level at 1 to 5 uM incubated for 24 hrs by ELISA relative to control; type: functional; design: scale not given: the % may be the effect or the level left; conditions: dose 1-5 µM
N2a [7] = test: Antialzheimer activity in mouse N2a cells overexpressing hAPP assessed as reduction in human amyloid beta 42 level at 1 to 5 uM incubated for 24 hrs by ELISA relative to control; type: functional; design: scale not given: the % may be the effect or the level left; conditions: dose 1-5 µM
[8] = Antialzheimer activity in rat Primary cortical neurons assessed as reduction in amyloid beta 40 level incubated for 24 hrs by ELISA relative to control; type: functional, Cortical neurone; design: scale not given: the % may be the effect or the level left
[9] = Lipophilicity, logD of the compound at 37 degreeC; type: physicochemical; conditions: octanol/water
[10] = Solubility of compound in PBS at pH 7.4 at 37 degreeC measured after 24 hrs; type: physicochemical
[11] = Solubility of compound in HCl at pH 1.2 at 37 degreeC measured after 24 hrs; type: physicochemical
[12] = Apparent permeability across apical to basolateral side in human Caco-2 cells; type: ADME, cell-based
[13] = Apparent permeability across basolateral to apical side in human Caco-2 cells; type: ADME, cell-based
[14] = Stability in human plasma assessed as half life; type: ADME, cell-free
[15] = Stability in mouse plasma assessed as half life; type: ADME, cell-free
[16] = Stability in porcine plasma assessed as half life; type: ADME, cell-free, Sus scrofa; conditions: pig
[17] = Stability in rat plasma assessed as half life; type: ADME, cell-free
[18] = Stability in human liver microsomes assessed as half life; type: ADME, Microsome
[19] = Stability in dog liver microsomes assessed as half life; type: ADME, Canis lupus familiaris, Microsome
[20] = Stability in rat liver microsomes assessed as half life; type: ADME, Microsome
[21] = Cmax in mouse at 400 mg/kg, ip; type: ADME, organism-based; design: dose 400 mg/kg, route ip; conditions: in vivo
[22] = Tmax in mouse at 400 mg/kg, ip; type: ADME, organism-based; conditions: in vivo
[23] = AUC in mouse at 400 mg/kg, ip; type: ADME, organism-based; design: dose 400 mg/kg, route ip; conditions: in vivo
[24] = Half life in mouse at 400 mg/kg, ip; type: ADME, organism-based; conditions: in vivo
[25] = Clearance in mouse at 400 mg/kg, ip; type: ADME, organism-based; conditions: in vivo

Chain of Histone deacetylase 2 (Q92769 whole entry): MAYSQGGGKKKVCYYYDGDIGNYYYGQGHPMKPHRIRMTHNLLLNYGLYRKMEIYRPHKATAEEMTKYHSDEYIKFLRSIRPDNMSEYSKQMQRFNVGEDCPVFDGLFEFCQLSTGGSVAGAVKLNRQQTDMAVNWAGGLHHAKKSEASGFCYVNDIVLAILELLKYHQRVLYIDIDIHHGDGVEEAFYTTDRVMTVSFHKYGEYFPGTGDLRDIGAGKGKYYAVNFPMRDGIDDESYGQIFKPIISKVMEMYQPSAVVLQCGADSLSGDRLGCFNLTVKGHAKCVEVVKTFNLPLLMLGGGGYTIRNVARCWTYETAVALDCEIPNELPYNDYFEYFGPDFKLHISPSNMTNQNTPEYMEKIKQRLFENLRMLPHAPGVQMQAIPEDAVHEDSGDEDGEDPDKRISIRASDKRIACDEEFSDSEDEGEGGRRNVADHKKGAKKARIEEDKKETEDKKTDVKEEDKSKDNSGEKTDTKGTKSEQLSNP
Chain of Histone deacetylase 1 (Q13547 whole entry): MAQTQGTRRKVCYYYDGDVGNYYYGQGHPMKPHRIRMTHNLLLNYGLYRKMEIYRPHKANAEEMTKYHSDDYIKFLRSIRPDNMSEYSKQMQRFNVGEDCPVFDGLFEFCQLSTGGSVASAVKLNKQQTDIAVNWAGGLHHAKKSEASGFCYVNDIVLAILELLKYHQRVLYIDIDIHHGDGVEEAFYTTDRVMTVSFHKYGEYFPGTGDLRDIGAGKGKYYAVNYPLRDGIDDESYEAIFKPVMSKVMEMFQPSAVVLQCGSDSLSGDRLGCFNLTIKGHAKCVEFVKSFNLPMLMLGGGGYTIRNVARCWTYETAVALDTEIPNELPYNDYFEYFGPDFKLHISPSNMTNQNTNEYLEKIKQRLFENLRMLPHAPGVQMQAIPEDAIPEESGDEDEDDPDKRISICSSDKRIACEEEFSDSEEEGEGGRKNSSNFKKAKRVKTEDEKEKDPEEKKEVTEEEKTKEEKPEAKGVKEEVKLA

Row | logD [9] | solubility at 24 h [10] [µg/mL] | solubility at 24 h [11] [µg/mL] | Papp A→B [12] [×10⁻⁶ cm/s] | Papp B→A [13] [×10⁻⁶ cm/s] | half-life [14] [h] | half-life [15] [h] | half-life [16] [h] | half-life [17] [h] | half-life [18] [h] | half-life [19] [h] | half-life [20] [h] | Cmax [21] [nM] | Tmax [22] [h] | AUC [23] [µM·h] | half-life [24] [h] | CL/F [25] [mL/min] | Structure (SMILES) | also measured
1 | – | – | – | – | – | – | – | – | – | – | – | – | – | – | – | – | – | O=C(CS)NCCCCCC(=O)Nc1ccccc1 | IC50 (Histone deacetylase 8 [1]): 200 µM
2 | – | – | – | – | – | – | – | – | – | – | – | – | – | – | – | – | – | N[C@@H](Cc1ccccc1)C(=O)Nc1ccccc1-c1ccc(NC(=O)CCCCCNC(=O)CS)cc1 | IC50 (Histone deacetylase 1): 2.76 µM; IC50 (Histone deacetylase 2): > 30 µM; IC50 (Histone deacetylase 8 [2]): 5.19 µM; IC50 [3]: 0.45 µM; IC50 [4]: 7.22 µM
3 | 2.64 | 150 (≈ 453 µM) | 1000 (≈ 3020 µM) | 15 | 24.7 | 1.32 | 0.967 | 1.15 | 1.53 | 1.38 | 1.2 | 1.1 | 1810 | 0.5 | 4.97 | 2.2 | 67.5 | O=C(CS)NCCCCCC(=O)Nc1cccc2cccnc12 | IC50 [5]: 0.02 µM; Activity (N2a [6]): 20%; Activity (N2a [7]): 20%; Activity [8]: 20%
4 | 2.19 | 120 (≈ 371 µM) | 1000 (≈ 3090 µM) | 7.33 | 10 | 1.28 | 2.88 | 1.48 | 1.65 | 1.13 | 0.717 | 1.17 | 1540 | 0.5 | 4.23 | 1.98 | 81.2 | CN(C)c1ccc(C(=O)NCCCCCNC(=O)CS)cc1 | –
